# Data reported in ChEMBL document CHEMBL5360526, “Discovery of BET specific bromodomain inhibitors with a novel scaffold” (Bioorg Med Chem, 2022).
# Tests used:
# [1] = molecular target: T1, Bromodomain-containing protein 4 (Homo sapiens, UniProt O60885); test: Inhibition of BRD4 BD2 (unknown origin) using SGRGK(Ac)GGK(Ac)GLGK(Ac) GGAK(Ac)RHRK-biotinylated peptide as substrate incubated for 60 mins by alpha screen assay
# [2] = molecular target: T1, Bromodomain-containing protein 4; test: Inhibition of N-terminal GST-tagged/C-terminal 6His-tagged BRD4 BD1 (47 to 170 residues) (unknown origin) expressed in Escherichia coli BL21 (DE3) using SGRGK(Ac)GGK(Ac)GLGK(Ac) GGAK(Ac)RHRK-biotinylated peptide as substrate incubated for 60 mins by alpha screen assay
smiles,measurement,setting,value
CC(C)Nc1ccc([N+](=O)[O-])c(Nc2ccc3c(c2)nnn3C(=O)Nc2ccccc2)n1,IC50,[1],5.84 µM
same,IC50,[2],5.13 µM
CN(C)S(=O)(=O)Nc1ccc(NCCCN2CCOCC2)nc1Nc1ccc2[nH]nnc2c1,IC50,[1],15 µM
same,IC50,[2],5.41 µM
CC(C)Nc1ccc(NS(C)(=O)=O)c(Nc2ccc3[nH]nnc3c2)n1,IC50,[1],2.86 µM
same,IC50,[2],2.47 µM
CC(C)Nc1ccc([N+](=O)[O-])c(Nc2ccc3c(c2)nnn3C(=O)c2ccccc2)n1,IC50,[1],10.2 µM
same,IC50,[2],4.27 µM
CC(C)Nc1ccc(NS(=O)(=O)c2cccnc2)c(Nc2ccc3[nH]nnc3c2)n1,IC50,[1],0.8 µM
same,IC50,[2],0.83 µM
CC(C)Nc1ccc([N+](=O)[O-])c(Nc2ccc3[nH]nnc3c2)n1,IC50,[1],10 µM
same,IC50,[2],9.8 µM
CN(C)S(=O)(=O)Nc1ccc(NCC2CC2)nc1Nc1ccc2[nH]nnc2c1,IC50,[1],5.63 µM
same,IC50,[2],4.45 µM
CN(C)S(=O)(=O)Nc1ccc(NC2COC2)nc1Nc1ccc2[nH]nnc2c1,IC50,[1],9.95 µM
same,IC50,[2],6.85 µM
CC(C)Nc1ccc(NS(=O)(=O)C2CCCCC2)c(Nc2ccc3[nH]nnc3c2)n1,IC50,[1],0.9 µM
same,IC50,[2],0.66 µM
CN(C)S(=O)(=O)Nc1ccc(NCC(c2ccccc2)c2ccccc2)nc1Nc1ccc2[nH]nnc2c1,IC50,[2],8.83 µM
CC(C)Nc1ccc(NC(=O)c2ccccc2)c(Nc2ccc3[nH]nnc3c2)n1,IC50,[1],12.3 µM
same,IC50,[2],3.98 µM
CC(C)Nc1ccc(NS(=O)(=O)c2ccccc2F)c(Nc2ccc3[nH]nnc3c2)n1,IC50,[1],1.66 µM
same,IC50,[2],1.42 µM
CC(C)Nc1ccc(NS(=O)(=O)N(C)C)c(Nc2ccc3[nH]nnc3c2)n1,IC50,[1],2.05 µM
same,IC50,[2],1.69 µM
CC(C)Nc1ccc(NS(=O)(=O)C2CC2)c(Nc2ccc3[nH]nnc3c2)n1,IC50,[1],1.8 µM
same,IC50,[2],1.83 µM
CC(C)Nc1ccc(NS(=O)(=O)c2ccccc2C(F)(F)F)c(Nc2ccc3[nH]nnc3c2)n1,IC50,[1],1.57 µM
same,IC50,[2],1.61 µM
CN(C)S(=O)(=O)Nc1ccc(NCCN2CCOCC2)nc1Nc1ccc2[nH]nnc2c1,IC50,[1],11.5 µM
same,IC50,[2],7.97 µM
CCCS(=O)(=O)Nc1ccc(NC(C)C)nc1Nc1ccc2[nH]nnc2c1,IC50,[1],3.02 µM
same,IC50,[2],3.23 µM
CN(C)S(=O)(=O)Nc1ccc(NCc2cccc3ccccc23)nc1Nc1ccc2[nH]nnc2c1,IC50,[2],7.91 µM
CC(C)Nc1ccc([N+](=O)[O-])c(Nc2ccc3c(c2)nnn3S(=O)(=O)c2ccccc2)n1,IC50,[1],4.47 µM
same,IC50,[2],3.1 µM
CN(C)S(=O)(=O)Nc1ccc(N2CCS(=O)(=O)CC2)nc1Nc1ccc2[nH]nnc2c1,IC50,[1],10.4 µM
same,IC50,[2],20.1 µM
CC(C)Nc1ccc(NS(=O)(=O)c2cccs2)c(Nc2ccc3[nH]nnc3c2)n1,IC50,[1],0.78 µM
same,IC50,[2],0.77 µM
COC(=O)NS(=O)(=O)Nc1ccc(NC(C)C)nc1Nc1ccc2[nH]nnc2c1,IC50,[1],1.06 µM
same,IC50,[2],1.18 µM
CC(C)Nc1ccc(NS(=O)(=O)c2ccccc2)c(Nc2ccc3[nH]nnc3c2)n1,IC50,[1],0.64 µM
same,IC50,[2],0.51 µM
